Measurements: PubChem BioAssay AID328 (DTP/NCI, 2004)
“And” between values parts separate entries of the source, which are not always exact repeats. Identical values can stand only once. Inconclusive results and toxic doses are left out.

Tested on: BDF1 mice, P388 leukemia ip, median survival T/C
Experiment: NCI In Vivo Anticancer Drug Screen. Data for tumor model P388 Leukemia (intraperitoneal) in B6D2F1 (BDF1) mice
Settings: endpoint: median survival time, higher = longer survival
Summary of the method: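 T/C = treated-group survival ÷ vehicle-control survival; tumour transplanted into mice before dosing.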

[1] = dose: 100.0 mg/kg/injection, schedule: Q01DX001 (ip), vehicle: saline sonified
[2] = dose: 200.0 mg/kg/injection, schedule: Q01DX001 (ip), vehicle: saline sonified
[3] = dose: 12.5 mg/kg/injection, schedule: Q01DX009 (ip), vehicle: saline with Tween-80
[4] = dose: 25.0 mg/kg/injection, schedule: Q01DX009 (ip), vehicle: saline with Tween-80
[5] = dose: 50.0 mg/kg/injection, schedule: Q01DX009 (ip), vehicle: saline with Tween-80
[6] = dose: 100.0 mg/kg/injection, schedule: Q01DX009 (ip), vehicle: saline with Tween-80
[7] = dose: 200.0 mg/kg/injection, schedule: Q01DX009 (ip), vehicle: saline with Tween-80
[8] = dose: 100.0 mg/kg/injection, schedule: Q04DX003 (ip), vehicle: saline with Tween-80
[9] = dose: 200.0 mg/kg/injection, schedule: Q04DX003 (ip), vehicle: saline with Tween-80
[10] = dose: 400.0 mg/kg/injection, schedule: Q04DX003 (ip), vehicle: saline with Tween-80
[11] = dose: 100.0 mg/kg/injection, schedule: Q01DX009 (ip), vehicle: Klucel (hydroxypropylcellulose) (HPC)
[12] = dose: 100.0 mg/kg/injection, schedule: Q04DX003 (ip), vehicle: Klucel (hydroxypropylcellulose) (HPC)
[13] = dose: 200.0 mg/kg/injection, schedule: Q04DX003 (ip), vehicle: Klucel (hydroxypropylcellulose) (HPC)
[14] = dose: 50.0 mg/kg/injection, schedule: Q04DX003 (ip), vehicle: Klucel (hydroxypropylcellulose) (HPC)
[15] = dose: 16.5 mg/kg/injection, schedule: Q04DX003 (ip), vehicle: saline with Tween-80
[16] = dose: 25.0 mg/kg/injection, schedule: Q04DX003 (ip), vehicle: saline with Tween-80

In the case of `OCCNCCN=Cc1ccccc1O`, the T/C (dose: 50.0 mg/kg/injection, schedule: Q01DX001 (ip), vehicle: saline sonified) is reported as 87 % of control, the T/C [1] is reported as 91 % of control and the T/C [2] is reported as 100 % of control.

With `CC1=CC(O)(C2(O)C=C(C)CC(C)(C)C2)CC(C)(C)C1` (configuration not stated) the T/C (dose: 100.0 mg/kg/injection, schedule: Q01DX009 (ip), vehicle: other) was 94 % of control, the T/C (dose: 200.0 mg/kg/injection, schedule: Q01DX009 (ip), vehicle: other) was 108 % of control and the T/C (dose: 400.0 mg/kg/injection, schedule: Q01DX009 (ip), vehicle: other) was 103 % of control.

For `CNC(=O)Cc1[nH]ccc1C(=O)O`, the T/C (dose: 100.0 mg/kg/injection, schedule: Q01DX001 (ip), vehicle: saline with Tween-80) was 106 % of control, the T/C (dose: 200.0 mg/kg/injection, schedule: Q01DX001 (ip), vehicle: saline with Tween-80) was 103 % of control and the T/C (dose: 400.0 mg/kg/injection, schedule: Q01DX001 (ip), vehicle: saline with Tween-80) was 114 % of control.

`Cc1cc2c(c3ncccc13)OCN(Cc1ccc(Cl)c(Cl)c1)C2` was tested, and the T/C [3] was 113 % of control, the T/C [4] was 108 % of control and the T/C [5] was 104 % of control.

`CCCCNC(=O)n1nnc2ccccc21` was tested, and the T/C [5] was 89 % of control, the T/C [6] was 106 % of control and the T/C [7] was 106 % of control.

For `NC1C=CC(CCC(N)C(=O)O)C=C1` (configuration not stated), the T/C (dose: 12.5 mg/kg/injection, schedule: Q01DX009 (ip), vehicle: saline) was 100 % of control, the T/C (dose: 25.0 mg/kg/injection, schedule: Q01DX009 (ip), vehicle: saline) was 100 % of control and 105 % of control and the T/C (dose: 50.0 mg/kg/injection, schedule: Q01DX009 (ip), vehicle: saline) was 100 % of control. The T/C (dose: 100.0 mg/kg/injection, schedule: Q01DX009 (ip), vehicle: saline) was 110 % of control.

With `CCOc1ccc(C(=O)Nc2c(C)cc(C)cc2C)cc1` the T/C [8] was 96 % of control, the T/C [9] was 112 % of control and the T/C [10] was 104 % of control.

In the case of `Cc1csc(NC(O)C(Cl)(Cl)Cl)n1` (configuration not stated), the T/C [5] is reported as 98 % of control, the T/C [6] is reported as 106 % of control and the T/C [7] is reported as 101 % of control.

`O=C(O)/C(=C\c1ccccc1Br)c1ccc(C(F)(F)F)cc1[N+](=O)[O-]` was tested, and the T/C (dose: 75.0 mg/kg/injection, schedule: Q01DX001 (ip), vehicle: saline with Tween-80) was 100 % of control, the T/C (dose: 150.0 mg/kg/injection, schedule: Q01DX001 (ip), vehicle: saline with Tween-80) was 95 % of control and the T/C (dose: 300.0 mg/kg/injection, schedule: Q01DX001 (ip), vehicle: saline with Tween-80) was 100 % of control.

With `CCOC(=O)C(OCc1ccccc1)(C(=O)OCC)C(C)C` the T/C (dose: 25.0 mg/kg/injection, schedule: Q04DX003 (ip), vehicle: saline) was 115 % of control, the T/C (dose: 50.0 mg/kg/injection, schedule: Q04DX003 (ip), vehicle: saline) was 100 % of control and the T/C (dose: 100.0 mg/kg/injection, schedule: Q04DX003 (ip), vehicle: saline) was 105 % of control.

For `CC(C)=CCC/C(C)=C\CCl`, the T/C [4] was 105 % of control, the T/C (dose: 37.5 mg/kg/injection, schedule: Q01DX009 (ip), vehicle: saline with Tween-80) was 99 % of control and the T/C [5] was 121 % of control. For the same molecule, the T/C (dose: 50.0 mg/kg/injection, schedule: Q04DX003 (ip), vehicle: saline with Tween-80) was 107 % of control, the T/C (dose: 75.0 mg/kg/injection, schedule: Q01DX009 (ip), vehicle: saline with Tween-80) was 122 % of control and the T/C [6] was 105 % of control. The T/C [8] was 111 % of control.

For `CCO/C=C/C(=O)NC(=O)OCC`, the T/C [6] was 98 % of control, the T/C [8] was 95 % of control and the T/C [7] was 107 % of control. The T/C [9] was 95 % of control, the T/C (dose: 400.0 mg/kg/injection, schedule: Q01DX009 (ip), vehicle: saline with Tween-80) was 109 % of control and the T/C [10] was 90 % of control.

For `CC1(C)C=C(C(Br)c2cccc(Br)c2)C(=O)c2ccccc21` (configuration not stated), the T/C [11] was 120 % of control, the T/C [12] was 90 % of control and the T/C (dose: 200.0 mg/kg/injection, schedule: Q01DX009 (ip), vehicle: Klucel (hydroxypropylcellulose) (HPC)) was 110 % of control. For the same molecule, the T/C [13] was 95 % of control, the T/C (dose: 400.0 mg/kg/injection, schedule: Q01DX009 (ip), vehicle: Klucel (hydroxypropylcellulose) (HPC)) was 110 % of control and the T/C (dose: 400.0 mg/kg/injection, schedule: Q04DX003 (ip), vehicle: Klucel (hydroxypropylcellulose) (HPC)) was 109 % of control.

In the case of `COc1cc2c(cc1OC)C(CNC(=O)/C=C/c1cc(OC)c(OC)c(OC)c1)C2` (configuration not stated), the T/C [5] is reported as 98 % of control, the T/C [6] is reported as 107 % of control and the T/C [7] is reported as 88 % of control.

For `CN(C)c1ccc(/C=C/c2ccc3ccccc3[n+]2[O-])cc1`, the T/C [5] was 99 % of control, the T/C [6] was 97 % of control and the T/C [7] was 117 % of control.

With `CC1(C)N=C(N)N=C(N)N1c1ccc(CCCCc2ccc(Cl)cc2Cl)cc1` the T/C (dose: 4.0 mg/kg/injection, schedule: Q01DX009 (ip), vehicle: saline) was 118 % of control, the T/C (dose: 25.0 mg/kg/injection, schedule: Q01DX002 (ip), vehicle: saline) was 91 % of control and the T/C (dose: 50.0 mg/kg/injection, schedule: Q01DX002 (ip), vehicle: saline) was 103 % of control.

For `COC1OC(n2cnc3ncn(Cc4ccccc4)c3c2=N)C2OC(C)(C)OC12` (configuration not stated), the T/C (dose: 100.0 mg/kg/injection, schedule: Q01DX001 (ip), vehicle: saline) was 110 % of control and the T/C (dose: 200.0 mg/kg/injection, schedule: Q01DX001 (ip), vehicle: saline) was 95 % of control.

For `O=C1OCC2SC(c3ccccc3)NC12` (configuration not stated), the T/C [1] was 95 % of control, the T/C [2] was 113 % of control and the T/C (dose: 400.0 mg/kg/injection, schedule: Q01DX001 (ip), vehicle: saline sonified) was 95 % of control.

In the case of `Cc1cc(=O)[nH]c(N/N=C/C(C)C)n1`, the T/C (dose: 25.0 mg/kg/injection, schedule: Q01DX009 (ip), vehicle: Klucel (hydroxypropylcellulose) (HPC)) is reported as 92 % of control, the T/C (dose: 50.0 mg/kg/injection, schedule: Q01DX009 (ip), vehicle: Klucel (hydroxypropylcellulose) (HPC)) is reported as 92 % of control and the T/C [14] is reported as 96 % of control. The T/C [11] was 100 % of control, the T/C [12] was 88 % of control and the T/C [13] was 88 % of control.

For `O=[N+]([O-])c1ccc(N/N=C/CCl)c([N+](=O)[O-])c1`, the T/C (dose: 6.25 mg/kg/injection, schedule: Q04DX003 (ip), vehicle: saline with Tween-80) was 120 % of control, the T/C (dose: 12.5 mg/kg/injection, schedule: Q04DX003 (ip), vehicle: saline with Tween-80) was 120 % of control and the T/C [15] was 118 % of control. The T/C [16] was 118 % of control.

With `CCCCCCCCCCCCNC(=O)CC(O)(CC(=O)O)C(=O)O` (configuration not stated) the T/C (dose: 25.0 mg/kg/injection, schedule: Q04DX003 (ip), vehicle: Klucel (hydroxypropylcellulose) (HPC)) was 111 % of control, the T/C [14] was 88 % of control and the T/C [12] was 92 % of control.

For `CC([CH2][Hg][Cl])c1ccccc1` (configuration not stated), the T/C (dose: 3.13 mg/kg/injection, schedule: Q01DX009 (ip), vehicle: saline with Tween-80) was 122 % of control, the T/C (dose: 4.16 mg/kg/injection, schedule: Q01DX009 (ip), vehicle: saline with Tween-80) was 118 % of control and the T/C (dose: 6.25 mg/kg/injection, schedule: Q01DX009 (ip), vehicle: saline with Tween-80) was 113 % of control. The T/C (dose: 9.38 mg/kg/injection, schedule: Q01DX009 (ip), vehicle: saline with Tween-80) was 109 % of control and the T/C [3] was 109 % of control.

`C=C1C(=O)OC2C1C(OC(=O)/C(C)=C/CO)C/C(C)=C/CCC1(CO)OC21` (configuration not stated) was tested, and the T/C (dose: 0.5 mg/kg/injection, schedule: Q01DX009 (ip), vehicle: Klucel (hydroxypropylcellulose) (HPC)) was 97 % of control, the T/C (dose: 1.0 mg/kg/injection, schedule: Q01DX009 (ip), vehicle: Klucel (hydroxypropylcellulose) (HPC)) was 94 % of control and the T/C (dose: 2.0 mg/kg/injection, schedule: Q01DX009 (ip), vehicle: Klucel (hydroxypropylcellulose) (HPC)) was 101 % of control. For the same molecule, the T/C (dose: 4.0 mg/kg/injection, schedule: Q01DX009 (ip), vehicle: Klucel (hydroxypropylcellulose) (HPC)) was 100 % of control.

For `Cc1[nH]c(=O)[nH]c(=O)c1N(CCF)CCCl`, the T/C (dose: 5.0 mg/kg/injection, schedule: Q01DX009 (ip), vehicle: Klucel (hydroxypropylcellulose) (HPC)) was 150 % of control, the T/C (dose: 10.0 mg/kg/injection, schedule: Q01DX009 (ip), vehicle: Klucel (hydroxypropylcellulose) (HPC)) was 172 % of control and the T/C (dose: 10.0 mg/kg/injection, schedule: Q01DX009 (ip), vehicle: saline) was 162 % of control. The T/C [15] was 168 % of control, the T/C [16] was 204 % of control and the T/C (dose: 37.5 mg/kg/injection, schedule: Q04DX003 (ip), vehicle: saline with Tween-80) was 200 % of control.
